Reference: patent US20030044909A1, “Melatonin-receptor expression cells and thier uses” (JCR PHARMACEUTICALS Co., Ltd., priority 1997, published 2003)

Molecular target: mel-1a receptor expressed in CHO cell (Homo sapiens, UniProt P48039)
Conditions: mel-1a/CHO cells; for increase in metabolic rate via the mel-1a receptor (responsiveness, specificity): cytosensor (FIG. 11)
Method: mel-1a/CHO cells were cultivated in advance in the DMEM medium containing 800 μg/ml G418 and 10% FBS, and mel-1a/CHO cells in the logarithmic growth phase were washed with PBS, treated with trypsin and diluted with the same medium to a concentration of 2.5×10^5/ml. 1 ml of cell suspension was seeded in each cell cup for cytosensor, and the cell cups were filled on the outside with 2 ml of the medium and then left on standing overnight udner th conditions of 5% CO2/37° C.
While paying attention not to cause air bubbles to mingle, a spacer was disposed on the bottom of each cell cup with use of sterile tweezers on the following day. When air bubbles were below the spacer, they were to be removed with a pipette. A capsule insert was placed in each cup, while preventing air bubbles from mingling, and the medium in the 1 ml portion was added from the top to thereby bury the cup in the medium, whereby it was to be ascertained that no air bubble had been drained or mingled into the spacer and insert.
Powdered low buffer RPM1 1640 medium (MDC) was dissolved in 1 liter of distilled water for tissue culture (Cosmo Bio), and the solution was adjusted to pH 7.4 and then suction-filtered through a 0.45 μm filter.
The Cyto software package of a personal computer was started up. A measuring medium was set in a ctyosensor, and fluid feeding system was switched for the measuring medium. The fluid inside the sensor chamber was aspirated out, and the measuring medium was placed in the 1.5 ml portion in to each cell, where a capsule cell prepared in advance was disposed while preventing air bubbles from mingling. The sensor chamber was connected to a cytosensor without causing air bubbles to mingle.
Each of the prepared samples was set on the cytosensor under the conditions where the metabolic rate was stabilized. Measurement with the cytosensor was performed by switching the fluid feeding from the measuring medium to the sample solution to stimulate the cells, then putting the fluid-feeding back to the measuring medium and measuring a change caused in metabolic rate of the cells, whereby stimulation with the sample was effected for 2 min. and subsequently the measuring medium continued to be fluid-fed until the metabolic rate was returned to the level determined prior to stimulation with the sample. […] Accordingly, stimulation with the sample was given at a regular interval of 40 min.
The cytosensor was designed to detect the release outside the cell of hydrogen ions, which is understood to reflect the metabolic activity of the cell, as a rate of change in extracellular hydrogen ion concentration. Upon binding of a ligand to the receptor expressed on the cell surface, intracellular signal transduction takes place, resulting in increased cellular metabolic activity to thereby release hydrogen ions outside the cell.

Sequence of mel-1a receptor expressed in CHO cell (P48039 whole entry): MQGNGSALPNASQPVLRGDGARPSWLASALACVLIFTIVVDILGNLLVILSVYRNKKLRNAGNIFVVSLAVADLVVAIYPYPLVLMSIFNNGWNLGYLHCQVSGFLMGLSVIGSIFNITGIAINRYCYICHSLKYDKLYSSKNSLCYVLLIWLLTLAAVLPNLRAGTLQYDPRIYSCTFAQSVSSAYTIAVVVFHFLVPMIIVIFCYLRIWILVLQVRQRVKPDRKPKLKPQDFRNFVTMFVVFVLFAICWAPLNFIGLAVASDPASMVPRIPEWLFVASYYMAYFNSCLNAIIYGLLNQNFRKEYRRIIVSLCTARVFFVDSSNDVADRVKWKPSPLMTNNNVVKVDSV

Row | SMILES | increase in metabolic rate via the mel-1a receptor (responsiveness, specificity) | time for the metabolic activity to decline to the level prior to stimulation (after 2 min stimulation)
1 | COc1ccc2[nH]cc(CCN)c2c1 [5-methoxytryptamine] | not to bring about an increase in metabolic rate | –
2 | COc1ccc2[nH]cc(C[C@H](N)C(=O)O)c2c1 [5-methoxytryptophan] | not to bring about an increase in metabolic rate | –
3 | CC(=O)NCCc1c[nH]c2ccc(O)cc12 [N-acetylserotonin] | not to bring about an increase in metabolic rate | –
4 | COc1ccc2[nH]cc(CCNC(C)=O)c2c1 [melatonin] | responds specifically to melatonin alone | about 40 min
5 | NCCc1c[nH]c2ccc(O)cc12 [serotonin] | not to bring about an increase in metabolic rate | –
6 | N[C@@H](Cc1c[nH]c2ccccc12)C(=O)O [tryptophan] | not to bring about an increase in metabolic rate | –
